From patent US3995059A, “Pharmaceutical compositions containing fatty acid amide derivatives” (Sumitomo Chemical Company, Limited, priority 1966, dated 1976) come the findings set out here.

One assay has as its system liver cholesterol. The assay is described as follows: Liver cholesterol (deposition of cholesterol and fat in the liver) of mice fed a cholesterol-rich diet (Table 1). It counts as in vivo. The settings on record: for Liver cholesterol: 0.2% in diet, oral, 8 to 12 days.
For assay [1], the system named is total cholesterol value in the blood serum. The assay is described as follows: Total cholesterol in blood serum of mice fed a diet enriched with cholesterol and bile acids (Table 1). In kind it is in vivo. The note with it: 0.2% in diet, 8 to 12 days; for Serum cholesterol: oral. The protocol:
The effectiveness of the compounds was tested by using mice fed on a specific diet which was enriched with cholesterol and bile acids. […] The amide compound as well was mixed with the specific diet in an amount of 0.2%, and continuously administered orally for 8 to 12 days. Then the total cholesterol value in the blood serum of the animals was evaluated.

[2] abbreviates: experiment [III], control not given.
[3] abbreviates: experiment [VIII], control 2652.

As to `CCCCC/C=C\C/C=C\CCCCCCCC(=O)NC(C)c1ccc(Br)cc1` (stereo not shown), the Liver cholesterol with liver cholesterol (setting [2]) was 1341 mg/100 g. This compound returned a Serum cholesterol in assay [1] (experiment [III], control 471) of 322 mg %.
On to `CCC(NC(=O)CCCCCCCCCCCCCCC(C)C)c1ccc(C(C)(C)C)cc1` (stereo not shown), for which the Liver cholesterol with liver cholesterol (experiment [IV], control 3145) was found to be 905 mg/100 g. In assay [1] (experiment [IV], control 595), this compound registered a Serum cholesterol of 297 mg %.
`CCCCC/C=C\C/C=C\CCCCCCCC(=O)NC(C)c1ccccc1[N+](=O)[O-]` (stereo not shown) had a Liver cholesterol in the assay on liver cholesterol (setting [3]) of 1003 mg/100 g. The compound also had a Serum cholesterol in assay [1] (experiment [VIII], control 472) of 299 mg %.
Regarding `CCCCC/C=C\C/C=C\CCCCCCCC(=O)NC(C)c1cccc([N+](=O)[O-])c1` (stereo not shown), the Liver cholesterol with liver cholesterol (setting [3]) turned out to be 992 mg/100 g. Also, the Serum cholesterol in assay [1] (experiment [VIII], control 472) was found to be 287 mg %.
For `CCCCC/C=C\C/C=C\CCCCCCCC(=O)NC(CC)c1ccc([N+](=O)[O-])cc1` (stereo not shown) the same measures were 980 mg/100 g and 331 mg %.
For `CC/C=C\C/C=C\C/C=C\CCCCCCCC(=O)NC(CC)c1ccccc1[N+](=O)[O-]` (stereo not shown) the same measures were 1091 mg/100 g and 300 mg %.
For `CCCCCCCC/C=C\CCCCCCCC(=O)NC(C)c1ccccc1[N+](=O)[O-]` (stereo not shown) the same measures were 1113 mg/100 g and 309 mg %.
Take `CCCCCCCC/C=C\CCCCCCCC(=O)NC12CC3CC(CC(C3)C1)C2`: in the assay with liver cholesterol (experiment [IX], control 2200), the Liver cholesterol stood at 1120 mg/100 g. The compound further yielded a Serum cholesterol in assay [1] (experiment [IX], control 336) of 294 mg %.
Regarding `CC/C=C\C/C=C\C/C=C\CCCCCCCC(=O)NC12CC3CC(CC(C3)C1)C2`, the Liver cholesterol with liver cholesterol (experiment [IX], control 2200) was found to be 750 mg/100 g. The compound further came in with a Serum cholesterol in assay [1] (experiment [IX], control 336) of 279 mg %.
For the compound `CCCCCCCC/C=C\CCCCCCCC(=O)N(C1CCCCC1)C1CCCCC1`, the Liver cholesterol in the assay on liver cholesterol (experiment [XI], control 3451) was 929 mg/100 g. The compound also came in with a Serum cholesterol in assay [1] (experiment [XI], control 595) of 309 mg %.
Compound `CCCCCCCC/C=C\CCCCCCCC(=O)NC(C)c1ccc(CC)cc1` (racemic) displayed a Liver cholesterol with liver cholesterol (experiment [X], control 3293) of 1010 mg/100 g. The compound further yielded a Serum cholesterol in assay [1] (experiment [X], control 554) of 304 mg %.
`CCCCCCCC/C=C\CCCCCCCC(=O)NC(C)c1ccc(Br)cc1` (racemic) registered a Liver cholesterol with liver cholesterol (experiment [XI], control 3451) of 1039 mg/100 g. Further, the Serum cholesterol in assay [1] (experiment [XI], control 595) was 299 mg %.
For `CCCCCCCC/C=C\CCCCCCCC(=O)NC(CC)c1cccc([N+](=O)[O-])c1` (racemic) the same measures were 1342 mg/100 g and 362 mg %.
For `CCCCCCCC/C=C\CCCCCCCC(=O)NC(C)c1ccc(OC)cc1` (racemic) the same measures were 1210 mg/100 g and 382 mg %.
For `CC/C=C\C/C=C\C/C=C\CCCCCCCC(=O)NC(C)c1cccc(Cl)c1` (racemic) the same measures were 1125 mg/100 g and 309 mg %.
The compound `CC/C=C\C/C=C\C/C=C\CCCCCCCC(=O)NC(CC)c1ccc(OC)cc1` (racemic) yielded a Liver cholesterol in the assay on liver cholesterol (experiment [XI], control 3451) of 1450 mg/100 g. This compound also gave a Serum cholesterol in assay [1] (experiment [XI], control 595) of 325 mg %.
As to `CC(C)CCCCCCCCCCCCCCC(=O)NC(C)c1ccccc1` (single isomer, unassigned; (+)) [(+) N-(α-Methylbenzyl)-isostearamide], the Liver cholesterol in the assay on liver cholesterol (experiment [I], control 3585) turned out to be 761 mg/100 g. In addition, the Serum cholesterol in assay [1] (experiment [I], control 546) is 251 mg %.
Compound `CCCCC/C=C\C/C=C\CCCCCCCC(=O)NC(C)c1ccccc1` (single isomer, unassigned; (+)) [(+) N-(α-Methylbenzyl)-linoleamide] showed a Liver cholesterol in the assay on liver cholesterol (experiment [I], control 3585) of 764 mg/100 g. Moreover, the Serum cholesterol in assay [1] (experiment [I], control 546) is on record as 267 mg %.
Compound `CC/C=C\C/C=C\C/C=C\CCCCCCCC(=O)NC(C)c1ccccc1` (single isomer, unassigned; (+)) [(+) N-(α-Methylbenzyl)-linolenamide] showed a Liver cholesterol with liver cholesterol (experiment [I], control 3585) of 784 mg/100 g. The compound also registered a Serum cholesterol in assay [1] (experiment [I], control 546) of 269 mg %.
For `CCCCCCCC/C=C\CCCCCCCC(=O)NC(C)c1ccccc1` (single isomer, unassigned; (+)) [(+) N-(α-Methylbenzyl)-oleamide] the same measures were 797 mg/100 g and 288 mg %.
In the assay with liver cholesterol (experiment [II], control 3308), `CCCCC/C=C\C/C=C\CCCCCCCC(=O)NC(CC)c1ccccc1` (single isomer, unassigned; (-)) [(-) (α-Ethylbenzyl)-linoleamide] displayed a Liver cholesterol of 821 mg/100 g. Also, the Serum cholesterol in assay [1] (experiment [II], control 521) came out at 251 mg %.
For `CC(C)CCCCCCCCCCCCCCC(=O)NC(C)c1ccccc1` (single isomer, unassigned; (-)) [(-) (α-Methylbenzyl)-isostearamide] the same measures were 777 mg/100 g and 246 mg %.
For `CCCCC/C=C\C/C=C\CCCCCCCC(=O)NC(C)c1ccccc1` (single isomer, unassigned; (-)) [(-) (α-Methylbenzyl)-linoleamide] the same measures were 908 mg/100 g and 286 mg %.
For `CC/C=C\C/C=C\C/C=C\CCCCCCCC(=O)NC(C)c1ccccc1` (single isomer, unassigned; (-)) [(-) (α-Methylbenzyl)-linolenamide] the same measures were 767 mg/100 g and 253 mg %.
Turning to `CCCCCCCC/C=C\CCCCCCCC(=O)NC(C)c1ccccc1` (single isomer, unassigned; (-)) [(-) (α-Methylbenzyl)-oleamide], the Liver cholesterol with liver cholesterol (experiment [II], control 3308) turned out to be 808 mg/100 g. Besides, the Serum cholesterol in assay [1] (experiment [II], control 521) stood at 283 mg %.
As for `CCCCCC=CCC=CCCCCCCCC(=O)NC(Cc1ccccc1)c1ccccc1` (stereo not shown) [C17 H31 CO], in the assay with liver cholesterol (experiment [V], control 2640), the Liver cholesterol turned out to be 544 mg/100 g. In addition, in assay [1] (experiment [V], control 372), the Serum cholesterol was 214 mg %.
With `CCCCC/C=C\C/C=C\CCCCCCCC(=O)O` [Linoleic acid, reference compound], in the assay on liver cholesterol (animals fed on a diet rich in cholesterol), the “prevention of deposition of cholesterol and fat in the liver” value is “such effectiveness is never observed”. Also, the Liver cholesterol with liver cholesterol (experiment [II], control 3308) was 4491 mg/100 g; with liver cholesterol (experiment [I], control 3585), 4585 mg/100 g; in the assay on liver cholesterol (experiment [VII], control 3535) it was 4550 mg/100 g; in the assay on liver cholesterol (experiment [V], control 2640), 3124 mg/100 g. For the same compound, the Serum cholesterol turned out to be 329 mg % in assay [1] (experiment [II], control 521); 324 mg % in assay [1] (experiment [I], control 546); 341 mg % in assay [1] (experiment [VII], control 508); 351 mg % in assay [1] (experiment [V], control 372). Also, in assay [1] (mice), the “ineffective cases and variation of effectiveness” value was “ineffective cases were sometimes observed due to the individual difference of the animals, and the effectiveness varied considerably even in the same individual animal”.
Regarding `CCCCCC=CCC=CCCCCCCCC(=O)NC(Cc1ccccc1)c1ccccc1` (stereo not drawn) [d- C17 H31 CO], in the assay with liver cholesterol (experiment [V], control 2640), the Liver cholesterol is listed as 500 mg/100 g. In addition, the Serum cholesterol in assay [1] (experiment [V], control 372) is 200 mg %.
For `CCCCCCCC/C=C\CCCCCCCC(=O)NC(Cc1ccccc1)c1ccccc1` (stereo not drawn) [d- drawing 33] the same measures were 729 mg/100 g and 222 mg %.
For `CC(C)CCCCCCCCCCCCCCC(=O)NC(Cc1ccccc1)c1ccccc1` (stereo not drawn) [d- iso-C17 H35 CO] the same measures were 561 mg/100 g and 209 mg %.
In the assay with liver cholesterol (experiment [II], control 3308), `CCCCCCCC/C=C\CCCCCCCC(=O)NC(C)c1ccccc1` (stereo not shown) [drawing 7] showed a Liver cholesterol of 815 mg/100 g. In addition, the Serum cholesterol in assay [1] (experiment [II], control 521) turned out to be 290 mg %.
On to `CCCCCCCC/C=C\CCCCCCCC(=O)NC(C)c1ccccc1` (stereo not shown) [drawing 8], for which the Liver cholesterol with liver cholesterol (experiment [II], control 3308) amounted to 1330 mg/100 g. In assay [1] (experiment [II], control 521), this compound yielded a Serum cholesterol of 295 mg %.
For `CCCCCCCCCCCCCC(=O)NC(C)c1ccccc1` (stereo not shown) [drawing 9] the same measures were 1620 mg/100 g and 302 mg %.
For `CCCCCCCCCCCCCC(=O)NC(C)c1ccccc1` (stereo not shown) [drawing 10] the same measures were 1820 mg/100 g and 252 mg %.
For `CCCCCCCCCCCCCCCC(=O)NC(C)c1ccccc1` (stereo not shown) [drawing 11] the same measures were 906 mg/100 g and 300 mg %.
For the compound `CCCCCCCCCCCCCCCC(=O)NC(C)c1ccccc1` (stereo not shown) [drawing 12], the Liver cholesterol with liver cholesterol (experiment [II], control 3308) is recorded as 1160 mg/100 g. Moreover, the Serum cholesterol in assay [1] (experiment [II], control 521) amounted to 314 mg %.
Compound `CCCCC/C=C\C/C=C\CCCCCCCC(=O)NC(CC)c1ccccc1` (stereo not shown) [drawing 13] yielded a Liver cholesterol with liver cholesterol (experiment [II], control 3308) of 992 mg/100 g. The compound also had a Serum cholesterol in assay [1] (experiment [II], control 521) of 274 mg %.
For `CCCCC/C=C\C/C=C\CCCCCCCC(=O)NC(CC)c1ccccc1` (stereo not shown) [drawing 14] the same measures were 1042 mg/100 g and 302 mg %.
As to `CCCCC/C=C\C/C=C\CCCCCCCC(=O)NC(C)c1ccc(Cl)cc1` (stereo not shown) [drawing 17], in the assay with liver cholesterol (setting [2]), the Liver cholesterol worked out at 946 mg/100 g. Further, the Serum cholesterol in assay [1] (experiment [III], control 471) is reported as 225 mg %.
In the assay with liver cholesterol (setting [2]), `CCCCC/C=C\C/C=C\CCCCCCCC(=O)NC(C)c1ccc(Cl)c(Cl)c1` (stereo not shown) [drawing 18] registered a Liver cholesterol of 856 mg/100 g. The compound further returned a Serum cholesterol in assay [1] (experiment [III], control 471) of 315 mg %.
